Experiments:
Test in all cases: KinomeScan kinase profiling
Assay type in all cases: binding
ABL2 = biological target: T1, ABL2 (Homo sapiens, UniProt P42684)
T1 construct: host or cells: E. coli host derived from BL21 (T7 phage lysate)
Method in brief: (§1)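 Kinases were expressed as T7 phage fusions in a BL21-derived E. coli host and the cleared lysates were used. Ligand beads were blocked with biotin and buffer (1% BSA, 0.05% Tween 20, 1 mM DTT). Compounds came from 40× DMSO stocks, and phage in the eluates was titred by qPCR.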

ACVR2B = biological target: T2, ACVR2B (Homo sapiens, UniProt Q13705)
T2 construct: host or cells: E. coli host derived from BL21 (T7 phage lysate)
Method in brief: as §1

AMPK-alpha2 = biological target: T3, AMPK-alpha2 (Homo sapiens, UniProt P54646)
T3 construct: host or cells: E. coli host derived from BL21 (T7 phage lysate)
Method in brief: as §1

BLK = biological target: T4, BLK (Homo sapiens, UniProt P51451)
T4 construct: purchased Ambit Biosciences Corp (KinomeScan); host or cells: E. coli host derived from the BL21 strain, T7 phage
Method in brief: as §1

BRAF (V600E) = biological target: T5, BRAF (V600E) (Homo sapiens, UniProt P15056, V600E)
T5 construct: purchased Ambit Biosciences Corp (KinomeScan); host or cells: E. coli host derived from the BL21 strain, T7 phage
Method in brief: as §1

CAMKK1 = biological target: T6, CAMKK1 (Homo sapiens, UniProt Q8N5S9)
T6 construct: host or cells: T7 phage in E. coli (BL21-derived)
Method in brief: as §1

ERBB4 = biological target: T7, ERBB4 (Homo sapiens, UniProt Q15303)
T7 construct: host or cells: E. coli host derived from BL21, T7 phage lysate
Method in brief: as §1

FLT3 (D835Y) = biological target: T8, FLT3 (D835Y) (Homo sapiens, UniProt P36888, D835Y)
T8 construct: host or cells: E. coli host derived from BL21, infected with T7 phage
Method in brief: as §1

IKK-epsilon = biological target: T9, IKK-epsilon (Homo sapiens, UniProt Q14164)
T9 construct: host or cells: T7 phage in E. coli host derived from BL21
Method in brief: as §1

[1] = biological target: T10, JAK1 (JH2domain-pseudokinase) (Homo sapiens, UniProt P23458)
T10 construct: JAK1 (JH2domain-pseudokinase); host or cells: T7 phage in E. coli host derived from BL21
Method in brief: as §1

KIT (V559D, V654A) = biological target: T11, KIT (V559D, V654A) (Homo sapiens, UniProt P10721, V559D/V654A)
T11 construct: host or cells: T7 phage in E. coli host derived from BL21
Method in brief: as §1

LATS1 = biological target: T12, LATS1 (Homo sapiens, UniProt O95835)
T12 construct: host or cells: T7 phage in E. coli host derived from BL21
Method in brief: as §1

LYN = biological target: T13, LYN (Homo sapiens, UniProt P07948)
T13 construct: host or cells: E. coli derived from BL21, infected with T7 phage
Method in brief: as §1

NEK2 = biological target: T14, NEK2 (Homo sapiens, UniProt P51955)
T14 construct: host or cells: T7 phage in E. coli host derived from BL21
Method in brief: as §1

PAK7 = biological target: T15, PAK7 (Homo sapiens, UniProt Q9P286)
T15 construct: host or cells: E. coli host derived from the BL21 strain, infected with T7 phage
Method in brief: as §1

PIK3CG = biological target: T16, PIK3CG (Homo sapiens, UniProt P48736)
T16 construct: purchased Ambit Biosciences Corp (KinomeScan); host or cells: E. coli host derived from BL21, infected with T7 phage
Method in brief: as §1

PRKG2 = biological target: T17, PRKG2 (Homo sapiens, UniProt Q13237)
T17 construct: purchased Ambit Biosciences Corp (KinomeScan); host or cells: E. coli host derived from BL21, infected with T7 phage
Method in brief: as §1

PRKX = biological target: T18, PRKX (Homo sapiens, UniProt P51817)
T18 construct: host or cells: E. coli host derived from BL21, T7 phage lysate
Method in brief: as §1

ROCK2 = biological target: T19, ROCK2 (Homo sapiens, UniProt O75116)
T19 construct: host or cells: E. coli host derived from BL21, T7 phage lysate
Method in brief: as §1

STK16 = biological target: T20, STK16 (Homo sapiens, UniProt O75716)
T20 construct: host or cells: E. coli host derived from the BL21 strain, T7 phage lysate
Method in brief: as §1

TNK2 = biological target: T21, TNK2 (Homo sapiens, UniProt Q07912)
T21 construct: purchased Ambit Biosciences Corp (KinomeScan); host or cells: E. coli host derived from the BL21 strain (T7 phage lysate)
Method in brief: as §1

TNNI3K = biological target: T22, TNNI3K (Homo sapiens, UniProt Q59H18)
T22 construct: purchased Ambit Biosciences Corp (KinomeScan); host or cells: E. coli host derived from the BL21 strain (T7 phage lysate)
Method in brief: as §1

T1 sequence (P42684 whole entry): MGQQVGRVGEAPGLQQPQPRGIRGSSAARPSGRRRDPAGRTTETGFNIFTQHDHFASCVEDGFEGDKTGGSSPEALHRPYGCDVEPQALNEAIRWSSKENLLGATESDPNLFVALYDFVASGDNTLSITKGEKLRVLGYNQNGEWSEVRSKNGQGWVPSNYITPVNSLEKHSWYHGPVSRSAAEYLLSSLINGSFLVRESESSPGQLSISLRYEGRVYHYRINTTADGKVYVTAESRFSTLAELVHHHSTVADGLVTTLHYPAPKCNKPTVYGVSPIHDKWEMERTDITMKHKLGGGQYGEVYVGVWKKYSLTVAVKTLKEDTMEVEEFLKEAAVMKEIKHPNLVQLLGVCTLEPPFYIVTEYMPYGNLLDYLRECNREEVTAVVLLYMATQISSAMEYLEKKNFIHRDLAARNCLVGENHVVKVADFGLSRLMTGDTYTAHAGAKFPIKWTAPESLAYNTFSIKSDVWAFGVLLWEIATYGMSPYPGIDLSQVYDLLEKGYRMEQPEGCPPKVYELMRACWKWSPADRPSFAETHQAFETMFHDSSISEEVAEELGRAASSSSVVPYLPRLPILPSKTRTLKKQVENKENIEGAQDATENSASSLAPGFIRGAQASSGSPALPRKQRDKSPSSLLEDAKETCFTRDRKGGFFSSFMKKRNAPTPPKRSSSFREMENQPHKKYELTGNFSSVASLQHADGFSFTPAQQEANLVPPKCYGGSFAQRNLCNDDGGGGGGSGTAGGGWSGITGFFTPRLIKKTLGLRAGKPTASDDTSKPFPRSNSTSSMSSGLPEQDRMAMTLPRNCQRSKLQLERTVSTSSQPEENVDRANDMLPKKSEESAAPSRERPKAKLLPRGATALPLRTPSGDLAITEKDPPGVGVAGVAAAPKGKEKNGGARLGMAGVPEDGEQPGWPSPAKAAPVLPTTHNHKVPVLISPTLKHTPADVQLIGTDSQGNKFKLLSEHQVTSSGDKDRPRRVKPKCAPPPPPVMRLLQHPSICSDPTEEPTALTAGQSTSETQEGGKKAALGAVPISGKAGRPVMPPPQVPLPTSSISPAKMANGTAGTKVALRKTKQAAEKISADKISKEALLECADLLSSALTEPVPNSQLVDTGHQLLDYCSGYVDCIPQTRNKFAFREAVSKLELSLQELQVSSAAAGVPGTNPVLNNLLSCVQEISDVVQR
T4 sequence (P51451 whole entry): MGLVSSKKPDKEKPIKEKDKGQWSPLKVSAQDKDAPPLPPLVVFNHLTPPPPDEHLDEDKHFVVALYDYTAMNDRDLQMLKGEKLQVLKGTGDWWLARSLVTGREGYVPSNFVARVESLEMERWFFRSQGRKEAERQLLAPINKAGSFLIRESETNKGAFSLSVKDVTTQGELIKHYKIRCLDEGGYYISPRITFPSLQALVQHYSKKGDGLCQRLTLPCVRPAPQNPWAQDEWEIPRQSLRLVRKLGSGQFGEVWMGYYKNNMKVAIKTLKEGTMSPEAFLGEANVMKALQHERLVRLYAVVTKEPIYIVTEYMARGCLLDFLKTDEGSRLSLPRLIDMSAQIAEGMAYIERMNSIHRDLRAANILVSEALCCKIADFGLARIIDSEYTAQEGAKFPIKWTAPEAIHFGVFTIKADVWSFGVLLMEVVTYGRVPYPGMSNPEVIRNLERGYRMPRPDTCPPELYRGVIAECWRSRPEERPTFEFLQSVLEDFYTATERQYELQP
T18 sequence (P51817 whole entry): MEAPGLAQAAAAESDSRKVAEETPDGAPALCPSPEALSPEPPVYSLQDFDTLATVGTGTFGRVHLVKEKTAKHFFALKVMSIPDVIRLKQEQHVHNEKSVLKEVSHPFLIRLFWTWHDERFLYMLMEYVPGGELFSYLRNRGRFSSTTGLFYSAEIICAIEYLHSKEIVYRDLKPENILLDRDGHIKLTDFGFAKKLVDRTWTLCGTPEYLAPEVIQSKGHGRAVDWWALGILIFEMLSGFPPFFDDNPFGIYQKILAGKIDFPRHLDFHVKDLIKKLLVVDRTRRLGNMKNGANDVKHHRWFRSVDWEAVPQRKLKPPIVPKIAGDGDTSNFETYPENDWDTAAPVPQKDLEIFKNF
T21 sequence (Q07912 whole entry): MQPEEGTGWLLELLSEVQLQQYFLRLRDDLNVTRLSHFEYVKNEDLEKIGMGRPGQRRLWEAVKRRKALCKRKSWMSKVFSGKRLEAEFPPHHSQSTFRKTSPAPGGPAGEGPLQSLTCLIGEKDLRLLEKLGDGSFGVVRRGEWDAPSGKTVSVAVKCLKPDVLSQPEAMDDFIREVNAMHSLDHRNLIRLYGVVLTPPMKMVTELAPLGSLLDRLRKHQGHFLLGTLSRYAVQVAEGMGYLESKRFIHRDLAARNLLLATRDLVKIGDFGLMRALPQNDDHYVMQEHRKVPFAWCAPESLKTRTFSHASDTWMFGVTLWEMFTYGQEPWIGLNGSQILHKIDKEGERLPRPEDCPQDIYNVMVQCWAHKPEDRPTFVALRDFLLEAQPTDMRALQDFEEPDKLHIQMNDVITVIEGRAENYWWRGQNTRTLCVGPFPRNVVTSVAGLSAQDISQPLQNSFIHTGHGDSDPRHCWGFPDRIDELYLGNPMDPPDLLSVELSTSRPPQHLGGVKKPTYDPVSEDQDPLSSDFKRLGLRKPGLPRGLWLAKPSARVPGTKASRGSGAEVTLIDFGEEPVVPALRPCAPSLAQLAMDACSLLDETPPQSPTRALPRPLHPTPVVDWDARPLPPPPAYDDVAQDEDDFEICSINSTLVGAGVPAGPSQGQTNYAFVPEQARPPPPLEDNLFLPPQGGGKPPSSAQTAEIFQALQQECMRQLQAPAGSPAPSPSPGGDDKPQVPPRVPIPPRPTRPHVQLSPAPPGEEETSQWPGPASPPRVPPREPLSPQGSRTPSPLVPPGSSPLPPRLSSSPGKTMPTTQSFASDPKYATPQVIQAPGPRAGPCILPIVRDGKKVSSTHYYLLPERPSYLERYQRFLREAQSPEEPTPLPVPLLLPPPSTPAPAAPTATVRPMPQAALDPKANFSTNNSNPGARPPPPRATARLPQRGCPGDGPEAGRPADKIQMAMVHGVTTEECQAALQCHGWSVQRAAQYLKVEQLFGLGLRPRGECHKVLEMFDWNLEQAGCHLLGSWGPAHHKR
T10 sequence (P23458 583-855 limits assumed): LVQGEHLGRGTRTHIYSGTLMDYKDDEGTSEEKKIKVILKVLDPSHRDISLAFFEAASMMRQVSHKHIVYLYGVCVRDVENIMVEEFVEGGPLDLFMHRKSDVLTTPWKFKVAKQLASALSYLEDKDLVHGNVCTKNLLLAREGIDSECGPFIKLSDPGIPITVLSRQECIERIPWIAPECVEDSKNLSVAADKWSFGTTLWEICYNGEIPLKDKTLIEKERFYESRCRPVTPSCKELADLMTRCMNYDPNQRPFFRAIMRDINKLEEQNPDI
T2 sequence (Q13705 19-512): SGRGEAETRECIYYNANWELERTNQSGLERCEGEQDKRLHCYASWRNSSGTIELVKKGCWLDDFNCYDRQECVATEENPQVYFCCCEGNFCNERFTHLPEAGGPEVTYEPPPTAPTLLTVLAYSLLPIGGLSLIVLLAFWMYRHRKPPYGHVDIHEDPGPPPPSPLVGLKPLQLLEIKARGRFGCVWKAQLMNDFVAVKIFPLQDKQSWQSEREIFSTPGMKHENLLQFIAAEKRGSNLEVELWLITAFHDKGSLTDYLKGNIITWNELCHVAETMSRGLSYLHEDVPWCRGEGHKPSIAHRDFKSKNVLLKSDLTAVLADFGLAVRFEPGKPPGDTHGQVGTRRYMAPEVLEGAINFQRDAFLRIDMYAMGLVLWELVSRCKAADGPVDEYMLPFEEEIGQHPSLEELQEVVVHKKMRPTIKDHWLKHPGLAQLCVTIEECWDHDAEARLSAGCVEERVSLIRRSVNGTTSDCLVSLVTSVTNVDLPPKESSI
T16 sequence (P48736 whole entry): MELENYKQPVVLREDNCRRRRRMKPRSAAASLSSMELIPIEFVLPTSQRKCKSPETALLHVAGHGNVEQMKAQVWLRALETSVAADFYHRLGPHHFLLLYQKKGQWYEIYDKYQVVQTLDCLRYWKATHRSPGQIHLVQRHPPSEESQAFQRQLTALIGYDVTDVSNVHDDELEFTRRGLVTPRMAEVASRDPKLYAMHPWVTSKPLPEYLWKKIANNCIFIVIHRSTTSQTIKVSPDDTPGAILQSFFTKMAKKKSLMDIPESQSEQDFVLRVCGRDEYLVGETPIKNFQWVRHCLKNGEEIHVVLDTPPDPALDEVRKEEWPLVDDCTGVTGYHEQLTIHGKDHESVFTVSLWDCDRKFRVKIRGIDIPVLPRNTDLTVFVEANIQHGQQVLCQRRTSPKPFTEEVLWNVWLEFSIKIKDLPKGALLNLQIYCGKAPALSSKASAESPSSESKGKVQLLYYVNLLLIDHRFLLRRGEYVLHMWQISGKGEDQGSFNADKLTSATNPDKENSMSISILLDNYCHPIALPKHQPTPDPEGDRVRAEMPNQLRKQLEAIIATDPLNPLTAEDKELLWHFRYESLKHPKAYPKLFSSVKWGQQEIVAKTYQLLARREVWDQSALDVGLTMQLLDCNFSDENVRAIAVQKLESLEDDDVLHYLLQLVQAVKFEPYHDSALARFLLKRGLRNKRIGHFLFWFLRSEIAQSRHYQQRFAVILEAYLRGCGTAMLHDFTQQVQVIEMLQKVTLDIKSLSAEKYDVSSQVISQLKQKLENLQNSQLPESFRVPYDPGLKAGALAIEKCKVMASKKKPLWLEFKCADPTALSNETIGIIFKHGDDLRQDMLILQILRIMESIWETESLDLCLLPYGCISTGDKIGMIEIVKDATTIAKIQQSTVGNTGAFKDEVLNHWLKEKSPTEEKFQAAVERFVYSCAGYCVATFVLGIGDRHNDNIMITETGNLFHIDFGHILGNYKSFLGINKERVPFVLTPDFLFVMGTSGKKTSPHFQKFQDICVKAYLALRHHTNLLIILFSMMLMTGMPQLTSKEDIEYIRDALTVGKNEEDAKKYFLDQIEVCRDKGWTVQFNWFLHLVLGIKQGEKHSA

Structure (SMILES): C#Cc1cccc(Nc2ncnc3cc(OC)c(OCCCN4CCOCC4)cc23)c1 [NRC-2694, N-(3-ethylnylphenyl)-7-methoxy-6-[3-(4-morpholinyl)propoxy]-4-quinazolinamine]
- % Ctrl @ 10000 nM (ABL2): 43 % Ctrl
- % Ctrl @ 10000 nM (ACVR2B): 63 % Ctrl
- % Ctrl @ 10000 nM (AMPK-alpha2): 61 % Ctrl
- % Ctrl @ 10000 nM (BLK): 4.4 % Ctrl
- % Ctrl @ 10000 nM (BRAF (V600E)): 73 % Ctrl
- % Ctrl @ 10000 nM (CAMKK1): 71 % Ctrl
- % Ctrl @ 10000 nM (ERBB4): 3.3 % Ctrl
- % Ctrl @ 10000 nM (FLT3 (D835Y)): 9.4 % Ctrl
- % Ctrl @ 10000 nM (IKK-epsilon): 75 % Ctrl
- % Ctrl @ 10000 nM [1]: 81 % Ctrl
- % Ctrl @ 10000 nM (KIT (V559D, V654A)): 47 % Ctrl
- % Ctrl @ 10000 nM (LATS1): 91 % Ctrl
- % Ctrl @ 10000 nM (LYN): 13 % Ctrl
- % Ctrl @ 10000 nM (NEK2): 63 % Ctrl
- % Ctrl @ 10000 nM (PAK7): 63 % Ctrl
- % Ctrl @ 10000 nM (PIK3CG): 78 % Ctrl
- % Ctrl @ 10000 nM (PRKG2): 40 % Ctrl
- % Ctrl @ 10000 nM (PRKX): 100 % Ctrl
- % Ctrl @ 10000 nM (ROCK2): 38 % Ctrl
- % Ctrl @ 10000 nM (STK16): 100 % Ctrl
- % Ctrl @ 10000 nM (TNK2): 37 % Ctrl
- % Ctrl @ 10000 nM (TNNI3K): 7.6 % Ctrl

— patent publication US9050341B2, “Methods of treating drug resistant and other tumors by administering 6,7-dialkoxy quinazoline derivatives” (NATCO PHARMA LIMITED, priority 2009, dated 2015)
